Experimental data from ChEMBL document CHEMBL1137167, “Potent inhibition of checkpoint kinase activity by a hymenialdisine-derived indoloazepine” (Bioorg Med Chem Lett, 2004).
pIC50: −log10 of the molar value.

Legend:
[1] = molecular target: T1, Serine/threonine-protein kinase Chk1 (Homo sapiens, UniProt O14757); assay: In vitro inhibitory concentration against checkpoint kinase 1 (Chk1) by using [gamma-33P]-ATP] as radioligand
T1 sequence (O14757 whole entry): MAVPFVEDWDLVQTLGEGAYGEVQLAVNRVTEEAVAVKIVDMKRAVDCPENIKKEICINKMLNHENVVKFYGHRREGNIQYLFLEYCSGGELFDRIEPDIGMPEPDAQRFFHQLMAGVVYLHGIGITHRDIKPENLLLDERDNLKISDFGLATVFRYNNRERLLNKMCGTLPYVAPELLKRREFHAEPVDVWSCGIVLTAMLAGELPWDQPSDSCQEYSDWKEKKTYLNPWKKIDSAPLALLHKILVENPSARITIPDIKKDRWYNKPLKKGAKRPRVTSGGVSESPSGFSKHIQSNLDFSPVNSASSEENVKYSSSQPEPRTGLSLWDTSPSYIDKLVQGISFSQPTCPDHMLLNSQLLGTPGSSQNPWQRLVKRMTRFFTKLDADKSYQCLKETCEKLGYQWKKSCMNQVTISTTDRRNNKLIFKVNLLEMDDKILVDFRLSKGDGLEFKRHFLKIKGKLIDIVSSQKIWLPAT

[2] = molecular target: Protein kinase C alpha type (Homo sapiens, UniProt P17252); assay: In vitro inhibitory concentration against human protein kinase C alpha (PKCa) by using [gamma-33P]-ATP] as radioligand
[3] = molecular target: Casein kinase II subunit alpha (Homo sapiens, UniProt P68400); assay: In vitro inhibitory concentration against human casein kinase 2 (CK2) by using [gamma-33P]-ATP] as radioligand
Chain of Casein kinase II subunit alpha (P68400 whole entry, canonical isoform): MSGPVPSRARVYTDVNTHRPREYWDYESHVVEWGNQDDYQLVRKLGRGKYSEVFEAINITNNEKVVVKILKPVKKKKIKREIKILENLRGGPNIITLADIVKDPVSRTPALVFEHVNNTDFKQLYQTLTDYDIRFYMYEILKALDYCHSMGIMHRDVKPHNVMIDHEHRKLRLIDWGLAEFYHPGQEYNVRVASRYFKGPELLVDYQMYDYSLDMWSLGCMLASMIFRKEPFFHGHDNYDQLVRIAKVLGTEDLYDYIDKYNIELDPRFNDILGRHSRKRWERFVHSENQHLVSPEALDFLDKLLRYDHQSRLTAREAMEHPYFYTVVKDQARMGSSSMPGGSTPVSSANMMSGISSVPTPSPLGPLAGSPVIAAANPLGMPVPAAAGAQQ

[4] = molecular target: Casein kinase I isoform delta (Homo sapiens, UniProt P48730); assay: In vitro inhibitory concentration against human casein kinase 1 delta (CK1 delta) by using [gamma-33P]-ATP] as radioligand
Chain of Casein kinase I isoform delta (P48730 whole entry, canonical isoform): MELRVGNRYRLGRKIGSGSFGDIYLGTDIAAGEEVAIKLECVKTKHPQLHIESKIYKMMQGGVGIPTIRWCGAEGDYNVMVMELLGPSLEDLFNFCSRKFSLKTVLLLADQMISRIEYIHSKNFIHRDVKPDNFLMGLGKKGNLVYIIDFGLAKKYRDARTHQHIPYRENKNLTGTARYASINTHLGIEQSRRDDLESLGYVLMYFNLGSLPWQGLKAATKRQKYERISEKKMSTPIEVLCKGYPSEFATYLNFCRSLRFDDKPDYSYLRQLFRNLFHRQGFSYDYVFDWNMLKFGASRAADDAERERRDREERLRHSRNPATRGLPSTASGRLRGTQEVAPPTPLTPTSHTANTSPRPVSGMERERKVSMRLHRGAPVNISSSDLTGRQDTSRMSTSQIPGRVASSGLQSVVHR

[5] = molecular target: Serine/threonine-protein kinase Chk2 (Homo sapiens, UniProt O96017); assay: In vitro inhibitory concentration against checkpoint kinase 2 (Chk2) by using [gamma-33P]-ATP] as radioligand
Chain of Serine/threonine-protein kinase Chk2 (O96017 whole entry): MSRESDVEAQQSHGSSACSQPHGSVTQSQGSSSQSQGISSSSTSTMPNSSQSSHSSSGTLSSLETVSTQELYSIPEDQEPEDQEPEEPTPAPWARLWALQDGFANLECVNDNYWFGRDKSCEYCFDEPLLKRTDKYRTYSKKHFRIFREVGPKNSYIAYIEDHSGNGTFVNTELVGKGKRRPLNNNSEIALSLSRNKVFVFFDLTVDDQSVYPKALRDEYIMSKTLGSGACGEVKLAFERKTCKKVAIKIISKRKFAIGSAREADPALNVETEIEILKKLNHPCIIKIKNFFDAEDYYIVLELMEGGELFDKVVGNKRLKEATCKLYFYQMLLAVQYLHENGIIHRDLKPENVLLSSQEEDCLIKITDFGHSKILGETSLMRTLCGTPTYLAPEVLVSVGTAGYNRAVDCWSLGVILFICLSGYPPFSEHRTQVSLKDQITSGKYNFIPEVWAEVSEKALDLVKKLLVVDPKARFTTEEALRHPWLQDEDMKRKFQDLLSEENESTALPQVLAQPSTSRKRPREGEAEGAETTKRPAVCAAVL

[6] = molecular target: Protein kinase C beta type (Homo sapiens, UniProt P05771); assay: In vitro inhibitory concentration against human protein kinase C beta-2 (PKCbetaII) by using [gamma-33P]-ATP] as radioligand
Chain of Protein kinase C beta type (P05771 whole entry): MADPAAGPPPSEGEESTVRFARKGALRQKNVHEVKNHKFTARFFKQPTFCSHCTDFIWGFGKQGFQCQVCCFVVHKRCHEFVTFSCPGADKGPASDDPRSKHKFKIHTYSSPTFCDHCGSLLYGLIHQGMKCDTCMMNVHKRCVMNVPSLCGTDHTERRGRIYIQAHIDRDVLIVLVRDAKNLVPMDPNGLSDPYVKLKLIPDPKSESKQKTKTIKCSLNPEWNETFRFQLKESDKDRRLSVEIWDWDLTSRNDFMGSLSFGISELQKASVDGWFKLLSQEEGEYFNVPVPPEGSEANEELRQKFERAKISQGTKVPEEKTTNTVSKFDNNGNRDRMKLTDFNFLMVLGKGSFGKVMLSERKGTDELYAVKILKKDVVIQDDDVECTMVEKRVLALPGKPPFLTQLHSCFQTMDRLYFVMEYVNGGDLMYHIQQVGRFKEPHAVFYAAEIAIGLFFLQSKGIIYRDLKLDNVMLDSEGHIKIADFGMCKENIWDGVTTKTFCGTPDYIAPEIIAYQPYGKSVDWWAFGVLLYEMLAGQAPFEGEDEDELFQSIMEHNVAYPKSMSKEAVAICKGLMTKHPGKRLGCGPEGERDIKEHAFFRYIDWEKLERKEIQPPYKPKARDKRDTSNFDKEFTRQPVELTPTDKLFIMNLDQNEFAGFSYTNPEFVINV

Row | pIC50 [1] | pIC50 [2] | pIC50 [3] | pIC50 [4] | pIC50 [5] | pIC50 [6] | Structure (SMILES)
1 | 6.63 | 5.60 | < 5.00 | 5.87 | 8.10 | 5.47 | Nc1nc(C2=C3C(=Nc4ccccc43)C(=O)NCC2)c(O)[nH]1
2 | 6.14 |  |  |  | 6.74 |  | NC1=N/C(=C2/CCNC(=O)c3[nH]ccc32)C(=O)N1 [DEBROMOHYMENIALDISINE]
3 | 5.71 |  | 5.15 | 7.46 | 7.38 |  | NC1=NC(=O)/C(=C2\CCNC(=O)c3[nH]c(Br)cc32)N1 [HYMENIALDISINE]
